PubChem BioAssay (NCI)
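GI50 marks 50% less growth. The concentration for full growth arrest is given as TGI.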

What was measured:
Test in all cases: NCI anticancer screen, dose series, 384-well format
BT-549 breast = system: BT-549 breast
MDA-MB-231 breast = system: MDA-MB-231 breast
TK-10 renal = system: TK-10 renal
HOP-62 NSCLC = system: HOP-62 NSCLC
SK-MEL-5 melanoma = system: SK-MEL-5 melanoma
RPMI-8226 leukemia = system: RPMI-8226 leukemia
SK-OV-3 ovarian = system: SK-OV-3 ovarian
SR leukemia = system: SR leukemia
PC-3 prostate = system: PC-3 prostate
COLO 205 colon = system: COLO 205 colon
SK-MEL-28 melanoma = system: SK-MEL-28 melanoma
OVCAR-4 ovarian = system: OVCAR-4 ovarian
HCC-2998 colon = system: HCC-2998 colon
MOLT-4 leukemia = system: MOLT-4 leukemia
HL-60(TB) leukemia = system: HL-60(TB) leukemia
IGROV1 ovarian = system: IGROV1 ovarian
UACC-257 melanoma = system: UACC-257 melanoma
LOX IMVI melanoma = system: LOX IMVI melanoma
ACHN renal = system: ACHN renal
NCI-H226 lung = system: NCI-H226 lung
A549 NSCLC = system: A549 NSCLC
T-47D breast = system: T-47D breast
HOP-92 NSCLC = system: HOP-92 NSCLC
U251 glioblastoma = system: U251 glioblastoma
SF-539 CNS = system: SF-539 CNS
OVCAR-8 ovarian = system: OVCAR-8 ovarian
EKVX NSCLC = system: EKVX NSCLC
MDA-MB-435 melanoma = system: MDA-MB-435 melanoma
DU-145 prostate = system: DU-145 prostate
KM12 colon = system: KM12 colon
HS 578T breast = system: HS 578T breast
NCI-H23 lung = system: NCI-H23 lung
MDA-MB-468 breast = system: MDA-MB-468 breast
SN12C renal = system: SN12C renal
SNB-19 CNS = system: SNB-19 CNS
CAKI-1 renal = system: CAKI-1 renal
SF-295 CNS = system: SF-295 CNS
HCT-15 colon = system: HCT-15 colon
RXF 393 renal = system: RXF 393 renal
OVCAR-3 ovarian = system: OVCAR-3 ovarian
NCI-H460 NSCLC = system: NCI-H460 NSCLC
HT29 colon = system: HT29 colon
UACC-62 melanoma = system: UACC-62 melanoma
SF-268 CNS = system: SF-268 CNS
NCI-H522 lung = system: NCI-H522 lung
786-0 renal = system: 786-0 renal
NCI-H322M lung = system: NCI-H322M lung
SNB-75 CNS = system: SNB-75 CNS
HCT-116 colon = system: HCT-116 colon
UO-31 renal = system: UO-31 renal
MALME-3M melanoma = system: MALME-3M melanoma
OVCAR-5 ovarian = system: OVCAR-5 ovarian
A498 renal = system: A498 renal
M14 melanoma = system: M14 melanoma
SW-620 colon = system: SW-620 colon
NCI/ADR-RES ovarian = system: NCI/ADR-RES ovarian
MCF7 breast = system: MCF7 breast

C[C@]12CC[C@@H]3c4ccc(OC(=O)N(CCCl)CCCl)cc4CC[C@H]3[C@@H]1CC[C@@H]2OP(=O)(O)O
GI50 (BT-549 breast): 25 µM | TGI (BT-549 breast): > 100 µM | GI50 (MDA-MB-231 breast): > 100 µM | TGI (MDA-MB-231 breast): > 100 µM | GI50 (TK-10 renal): > 100 µM | TGI (TK-10 renal): > 100 µM | GI50 (HOP-62 NSCLC): > 100 µM | TGI (HOP-62 NSCLC): > 100 µM | GI50 (SK-MEL-5 melanoma): > 100 µM | TGI (SK-MEL-5 melanoma): > 100 µM | GI50 (RPMI-8226 leukemia): > 100 µM | TGI (RPMI-8226 leukemia): > 100 µM | GI50 (SK-OV-3 ovarian): > 100 µM | TGI (SK-OV-3 ovarian): > 100 µM | GI50 (SR leukemia): > 100 µM | TGI (SR leukemia): > 100 µM | GI50 (PC-3 prostate): > 100 µM | TGI (PC-3 prostate): > 100 µM | GI50 (COLO 205 colon): > 100 µM | TGI (COLO 205 colon): > 100 µM | GI50 (SK-MEL-28 melanoma): > 100 µM | TGI (SK-MEL-28 melanoma): > 100 µM | GI50 (OVCAR-4 ovarian): > 100 µM | TGI (OVCAR-4 ovarian): > 100 µM | GI50 (HCC-2998 colon): > 100 µM | TGI (HCC-2998 colon): > 100 µM | GI50 (MOLT-4 leukemia): > 100 µM | TGI (MOLT-4 leukemia): > 100 µM | GI50 (HL-60(TB) leukemia): > 100 µM | TGI (HL-60(TB) leukemia): > 100 µM | GI50 (IGROV1 ovarian): > 100 µM | TGI (IGROV1 ovarian): > 100 µM | GI50 (UACC-257 melanoma): > 100 µM | TGI (UACC-257 melanoma): > 100 µM | GI50 (LOX IMVI melanoma): > 100 µM | TGI (LOX IMVI melanoma): > 100 µM | GI50 (ACHN renal): > 100 µM | TGI (ACHN renal): > 100 µM | GI50 (NCI-H226 lung): > 100 µM | TGI (NCI-H226 lung): > 100 µM | GI50 (A549 NSCLC): > 100 µM | TGI (A549 NSCLC): > 100 µM | GI50 (T-47D breast): > 100 µM | TGI (T-47D breast): > 100 µM | GI50 (HOP-92 NSCLC): > 100 µM | TGI (HOP-92 NSCLC): > 100 µM | GI50 (U251 glioblastoma): > 100 µM | TGI (U251 glioblastoma): > 100 µM | GI50 (SF-539 CNS): > 100 µM | TGI (SF-539 CNS): > 100 µM | GI50 (OVCAR-8 ovarian): > 100 µM | TGI (OVCAR-8 ovarian): > 100 µM | GI50 (EKVX NSCLC): > 100 µM | TGI (EKVX NSCLC): > 100 µM | GI50 (MDA-MB-435 melanoma): 41.2 µM | TGI (MDA-MB-435 melanoma): > 100 µM | GI50 (DU-145 prostate): > 100 µM | TGI (DU-145 prostate): > 100 µM | GI50 (KM12 colon): > 100 µM | TGI (KM12 colon): > 100 µM | GI50 (HS 578T breast): > 100 µM | TGI (HS 578T breast): > 100 µM | GI50 (NCI-H23 lung): > 100 µM | TGI (NCI-H23 lung): > 100 µM | GI50 (MDA-MB-468 breast): > 100 µM | TGI (MDA-MB-468 breast): > 100 µM | GI50 (SN12C renal): > 100 µM | TGI (SN12C renal): > 100 µM | GI50 (SNB-19 CNS): > 100 µM | TGI (SNB-19 CNS): > 100 µM | GI50 (CAKI-1 renal): > 100 µM | TGI (CAKI-1 renal): > 100 µM | GI50 (SF-295 CNS): > 100 µM | TGI (SF-295 CNS): > 100 µM | GI50 (HCT-15 colon): > 100 µM | TGI (HCT-15 colon): > 100 µM | GI50 (RXF 393 renal): 47.7 µM | TGI (RXF 393 renal): > 100 µM | GI50 (OVCAR-3 ovarian): > 100 µM | TGI (OVCAR-3 ovarian): > 100 µM | GI50 (NCI-H460 NSCLC): > 100 µM | TGI (NCI-H460 NSCLC): > 100 µM | GI50 (HT29 colon): > 100 µM | TGI (HT29 colon): > 100 µM | GI50 (UACC-62 melanoma): > 100 µM | TGI (UACC-62 melanoma): > 100 µM | GI50 (SF-268 CNS): > 100 µM | TGI (SF-268 CNS): > 100 µM | GI50 (NCI-H522 lung): > 100 µM | TGI (NCI-H522 lung): > 100 µM | GI50 (786-0 renal): > 100 µM | TGI (786-0 renal): > 100 µM | GI50 (NCI-H322M lung): > 100 µM | TGI (NCI-H322M lung): > 100 µM | GI50 (SNB-75 CNS): > 100 µM | TGI (SNB-75 CNS): > 100 µM | GI50 (HCT-116 colon): > 100 µM | TGI (HCT-116 colon): > 100 µM | GI50 (UO-31 renal): > 100 µM | TGI (UO-31 renal): > 100 µM | GI50 (MALME-3M melanoma): > 100 µM | TGI (MALME-3M melanoma): > 100 µM | GI50 (OVCAR-5 ovarian): > 100 µM | TGI (OVCAR-5 ovarian): > 100 µM | GI50 (A498 renal): > 100 µM | TGI (A498 renal): > 100 µM | GI50 (M14 melanoma): > 100 µM | TGI (M14 melanoma): > 100 µM | GI50 (SW-620 colon): > 100 µM | TGI (SW-620 colon): > 100 µM | GI50 (NCI/ADR-RES ovarian): > 100 µM | TGI (NCI/ADR-RES ovarian): > 100 µM | GI50 (MCF7 breast): > 100 µM | TGI (MCF7 breast): > 100 µM
